Experimental data: patent US11111233B2, “Amino pyrimidine compound for inhibiting protein tyrosine kinase activity” (Shenzhen TargetRx, Inc., priority 2016, dated 2021)
Like-named read-outs stand apart in the source and are kept apart here.

What was measured:
[1] = target: WT EGFR (Homo sapiens (Human), UniProt P00533); assay: Kinase inhibition assay (HTRF), WT EGFR; format: biochemical; conditions: HTRF Kinase TK kit, 10 min pre-incubation, 20 min reaction
[2] = target: EGFR [L858R/T790M] (Homo sapiens (Human), UniProt P00533, L858R/T790M); assay: Kinase inhibition assay (HTRF), EGFR [L858R/T790M]; format: biochemical; conditions: HTRF Kinase TK kit, 10 min pre-incubation, 20 min reaction; read-out: EGFR(L858R/T790M) IC50
[3] = test system: Skin cancer cell line A431 (WT); assay: Cytotoxicity test (MTS cell viability), A431; format: cell-based; conditions: Homo sapiens
[4] = test system: lung cancer cells HCC827 (Del19); assay: Cytotoxicity test (MTS cell viability), HCC827; format: cell-based; conditions: Homo sapiens
[5] = A-431, MTS, 72 hours, read-out: A431 (WT) IC50
[6] = HCC827, 72 h, read-out: HCC827 (Del19) IC50(nM)
[7] = HCC827, MTS, 72 hours, read-out: HCC827 (Del19) IC50

Sequence of WT EGFR (P00533 25-1210): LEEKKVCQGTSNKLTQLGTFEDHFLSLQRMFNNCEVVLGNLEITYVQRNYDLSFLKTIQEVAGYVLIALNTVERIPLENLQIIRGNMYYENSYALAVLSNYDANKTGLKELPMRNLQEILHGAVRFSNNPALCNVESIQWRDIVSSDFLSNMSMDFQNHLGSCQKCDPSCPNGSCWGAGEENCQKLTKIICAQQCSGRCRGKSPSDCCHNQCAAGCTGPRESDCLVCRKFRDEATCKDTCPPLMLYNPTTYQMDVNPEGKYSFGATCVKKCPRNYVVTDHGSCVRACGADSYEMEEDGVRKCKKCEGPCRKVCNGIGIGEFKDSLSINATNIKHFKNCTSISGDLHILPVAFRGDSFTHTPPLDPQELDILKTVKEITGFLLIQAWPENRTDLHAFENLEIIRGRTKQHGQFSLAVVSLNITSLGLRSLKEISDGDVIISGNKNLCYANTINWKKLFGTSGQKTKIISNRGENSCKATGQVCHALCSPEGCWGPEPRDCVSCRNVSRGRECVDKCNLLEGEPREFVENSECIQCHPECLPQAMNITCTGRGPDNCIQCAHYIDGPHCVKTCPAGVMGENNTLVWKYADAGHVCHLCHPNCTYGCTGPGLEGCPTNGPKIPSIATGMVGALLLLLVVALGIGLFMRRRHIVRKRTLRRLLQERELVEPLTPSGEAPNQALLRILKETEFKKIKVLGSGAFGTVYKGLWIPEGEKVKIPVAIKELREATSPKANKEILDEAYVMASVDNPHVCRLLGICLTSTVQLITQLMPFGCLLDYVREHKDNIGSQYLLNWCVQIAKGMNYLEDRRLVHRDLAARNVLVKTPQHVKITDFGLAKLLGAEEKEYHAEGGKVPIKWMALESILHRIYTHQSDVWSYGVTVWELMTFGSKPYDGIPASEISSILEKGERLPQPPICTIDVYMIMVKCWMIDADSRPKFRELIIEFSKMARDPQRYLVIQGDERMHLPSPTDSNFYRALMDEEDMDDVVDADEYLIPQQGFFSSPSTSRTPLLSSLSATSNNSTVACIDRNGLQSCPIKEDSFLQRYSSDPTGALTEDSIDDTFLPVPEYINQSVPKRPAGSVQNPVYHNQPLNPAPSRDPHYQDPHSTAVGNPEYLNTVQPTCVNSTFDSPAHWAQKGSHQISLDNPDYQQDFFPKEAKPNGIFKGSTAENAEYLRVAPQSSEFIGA
Sequence of EGFR [L858R/T790M] (P00533 25-1210 T790M/L858R): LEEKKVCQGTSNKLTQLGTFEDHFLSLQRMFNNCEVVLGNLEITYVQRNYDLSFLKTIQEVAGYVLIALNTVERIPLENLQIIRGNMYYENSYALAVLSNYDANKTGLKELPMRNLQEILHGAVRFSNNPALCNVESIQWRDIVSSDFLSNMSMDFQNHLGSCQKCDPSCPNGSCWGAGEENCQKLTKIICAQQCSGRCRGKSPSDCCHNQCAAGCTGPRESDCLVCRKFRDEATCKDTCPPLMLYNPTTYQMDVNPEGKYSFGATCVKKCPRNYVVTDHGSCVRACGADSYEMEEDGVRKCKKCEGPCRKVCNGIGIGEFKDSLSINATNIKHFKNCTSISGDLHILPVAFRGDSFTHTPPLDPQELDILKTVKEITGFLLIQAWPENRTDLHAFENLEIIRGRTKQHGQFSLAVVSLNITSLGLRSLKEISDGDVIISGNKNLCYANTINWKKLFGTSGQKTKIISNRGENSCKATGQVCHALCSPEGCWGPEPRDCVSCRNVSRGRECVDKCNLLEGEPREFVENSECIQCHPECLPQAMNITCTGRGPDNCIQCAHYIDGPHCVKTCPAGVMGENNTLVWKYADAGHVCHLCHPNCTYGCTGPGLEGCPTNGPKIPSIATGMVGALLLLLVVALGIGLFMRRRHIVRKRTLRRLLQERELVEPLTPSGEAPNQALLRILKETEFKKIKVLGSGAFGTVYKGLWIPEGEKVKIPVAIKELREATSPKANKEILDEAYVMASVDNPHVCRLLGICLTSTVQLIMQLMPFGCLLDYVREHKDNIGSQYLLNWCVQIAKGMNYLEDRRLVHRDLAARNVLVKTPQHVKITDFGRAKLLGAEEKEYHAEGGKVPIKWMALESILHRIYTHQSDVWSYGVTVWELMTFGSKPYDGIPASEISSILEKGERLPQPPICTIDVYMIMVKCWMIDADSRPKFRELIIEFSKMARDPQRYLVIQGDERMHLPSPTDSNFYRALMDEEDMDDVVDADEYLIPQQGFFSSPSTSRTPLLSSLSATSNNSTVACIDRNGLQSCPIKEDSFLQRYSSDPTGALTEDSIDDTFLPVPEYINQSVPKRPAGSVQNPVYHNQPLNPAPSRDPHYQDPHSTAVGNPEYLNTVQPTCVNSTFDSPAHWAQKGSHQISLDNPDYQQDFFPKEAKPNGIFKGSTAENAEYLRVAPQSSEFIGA

What does the source list for `C=CC(=O)Nc1cc(Nc2nccc(-c3cc(F)c4nc(C)n(C(C)C)c4c3)n2)c(OC)cc1N1CCC(O)CC1` [Example 17, N-(2-(4-hydroxypiperidine-1-yl)-5-((4-(4-fluoro-1-isopropyl-2-methyl-1H-benzo[d]imidazole-6-yl)pyrimidin-2-yl)amino)-4-methoxyphenyl)acrylamide]?
IC50 [1]: > 100 nM; IC50 [2]: 1 to 50 nM; IC50 [3, 5]: > 1000 nM; IC50 [4, 6]: 100 to 400 nM

`C=CC(=O)Nc1cc(Nc2nccc(-c3cc(F)c4nc(C)n(C5CC5)c4c3)n2)c(OC)cc1N(C)CCN(C)C` [Example 20, N-(5-((4-(1-cyclopropyl-4-fluoro-2-methyl-1H-benzo[d]imidazole-6-yl)pyrimidin-2-yl)amino)-2-((2-(dimethylamino)ethyl)(methyl)amino)-4-methoxyphenyl)acrylamide] was tested. Which IC50 [1] did it give?
The IC50 was 1 to 50 nM.

What about the IC50 [2] of the same compound?
Its IC50 is under 1 nM.

What about the IC50 [3, 5] of the same compound?
Its IC50 is 100 to 400 nM.

And the IC50 [4, 7]?
Its IC50 is 10 to 100 nM.

For `C=CC(=O)Nc1cc(Nc2nccc(-c3cc(F)c4nc(CF)n(C(C)C)c4c3)n2)c(OC)cc1N(C)CCN(C)C` [Example 21, N-(2-((2-(dimethylamino)ethyl)(methyl)amino)-5-((4-(4-fluoro-2-(fluoromethyl)-1-isopropyl-1H-benzo[d]imidazole-6-yl)pyrimidin-2-yl)amino)-4-methoxyphenyl)acrylamide], which IC50 [1] is on record?
Its IC50 is 1 to 50 nM.

And the IC50 [2]?
Its IC50 is under 1 nM.

And the IC50 [3, 5]?
The IC50 was 100 to 400 nM.

And the IC50 [4, 7]?
The IC50 was under 10 nM.

With `C=CC(=O)Nc1cc(Nc2nccc(-c3cnc4nc(C)n(C(C)C)c4c3)n2)c(OC)cc1N(C)CCN(C)C` [Example 22, N-(2-((2-(dimethylamino)ethyl)(methyl)amino)-5-((4-(1-isopropyl-2-methyl-1H-imidazo[4,5-b]pyridine-6-yl)pyrimidin-2-yl)amino)-4-methoxyphenyl)acrylamide] as the compound, how does the IC50 [1] read?
The IC50 was 1 to 50 nM.

And the IC50 [2]?
The IC50 was 1 to 50 nM.

And the IC50 ([3]; A-431, 72 h, read-out: A431 (WT) IC50(nM))?
Its IC50 is 100 to 400 nM.

And the IC50 [4, 6]?
Its IC50 is 10 to 100 nM.

`C=CC(=O)Nc1cc(Nc2nccc(-c3ccc4nc(OC)n(C(C)C)c4c3)n2)c(OC)cc1N(C)CCN(C)C` [Example 24, N-(2-((2-(dimethylamino)ethyl)(methyl)amino)-5-((4-(1-isopropyl-2-methoxy-1H-benzo[d]imidazole-6-yl)pyrimidin-2-yl)amino)-4-methoxyphenyl)acrylamide] was tested. Which IC50 [1] did it give?
Its IC50 is 1 to 50 nM.

What about the IC50 [2] of the same compound?
The IC50 was 1 to 50 nM.

What about the IC50 [3, 5] of the same compound?
Its IC50 is 400 to 1000 nM.

What about the IC50 [4, 7] of the same compound?
The IC50 was 10 to 100 nM.

Which IC50 [1] does the source give for `C=CC(=O)Nc1cc(Nc2nccc(-c3ccc4oc(=O)n(C)c4c3)n2)c(OC)cc1N(C)CCN(C)C` [Example 25, N-(2-((2-(dimethylamino)ethyl)(methyl)amino)-4-methoxy-5-((4-(3-methyl-2-oxo-2,3-di hydrobenzo[d]oxazole-5-yl)pyrimidin-2-yl)amino)phenyl)acrylamide] here?
The IC50 was 1 to 50 nM.

What about the IC50 [2] of the same compound?
The IC50 was 1 to 50 nM.

What about the IC50 [3, 5] of the same compound?
Its IC50 is over 1000 nM.

What about the IC50 [4, 7] of the same compound?
The IC50 was 100 to 400 nM.

For `C=CC(=O)Nc1cc(Nc2nccc(-c3cc(F)c4cnn(C(C)C)c4c3)n2)c(OC)cc1N(C)CCN(C)C` [Example 26, N-(2-((2-(dimethylamino)ethyl)(methyl)amino)-5-((4-(4-fluoro-1-isopropyl-1H-indazole-6-yl)pyrimidin-2-yl)amino)-4-methoxyphenyl)acrylamide], which IC50 [1] is on record?
The IC50 was 1 to 50 nM.

What about the IC50 [2] of the same compound?
The IC50 was under 1 nM.

What about the IC50 [3, 5] of the same compound?
The IC50 was 400 to 1000 nM.

And the IC50 [4, 7]?
The IC50 was 10 to 100 nM.

For `C=CC(=O)Nc1cc(Nc2nccc(-c3ccc4cnn(C(C)C)c4c3)n2)c(OC)cc1N(C)CCN(C)C` [Example 27, N-(2-((2-(dimethylamino)ethyl)(methyl)amino)-5-((4-(1-isopropyl-1H-indazole-6-yl)pyrimidin-2-yl)amino)-4-methoxyphenyl)acrylamide], which IC50 [1] is on record?
Its IC50 is 1 to 50 nM.

And the IC50 [2]?
Its IC50 is under 1 nM.

What about the IC50 [3, 5] of the same compound?
Its IC50 is 400 to 1000 nM.

And the IC50 [4, 7]?
Its IC50 is 10 to 100 nM.

What does the source list for `C=CC(=O)Nc1cc(Nc2nccc(-c3cc(F)c4nc(C)c(C(C)C)n4c3)n2)c(OC)cc1N(C)CCN(C)C` [Example 28, N-(2-((2-(dimethylamino)ethyl)(methyl)amino)-5-((4-(8-fluoro-3-isopropyl-2-methylimidazo[1,2-a]pyridine-6-yl)pyrimidin-2-yl)amino)-4-methoxyphenyl)acrylamide]?
IC50 [1]: 1 to 50 nM; IC50 [2]: 1 to 50 nM; IC50 [3, 5]: 400 to 1000 nM; IC50 [4, 7]: 10 to 100 nM

Which IC50 [1] does the source give for `C=CC(=O)Nc1cc(Nc2nccc(-c3cc(F)c4nc(C)cn4c3)n2)c(OC)cc1N(C)CCN(C)C` [Example 29, N-(2-((2-(dimethylamino)ethyl)(methyl)amino)-5-((4-(8-fluoro-2-methylimidazo[1,2-a]pyridine-6-yl)pyrimidin-2-yl)amino)-4-methoxyphenyl)acrylamide] here?
The IC50 was 1 to 50 nM.

And the IC50 [2]?
The IC50 was 1 to 50 nM.

And the IC50 [3, 5]?
The IC50 was 400 to 1000 nM.

What about the IC50 [4, 7] of the same compound?
The IC50 was 100 to 400 nM.

Which IC50 [1] does the source give for `C=CC(=O)Nc1cc(Nc2nccc(-c3cc(OC(C)(C)C)c4nc(C)n(C(C)C)c4c3)n2)c(OC)cc1N(C)CCN(C)C` [Example 30, N-(5-((4-(4-(tert-butoxy)-1-isopropyl-2-methyl-1H-benzo[d]imidazole-6-yl)pyrimidin-2-yl)amino)-2-((2-(dimethylamino)ethyl)(methyl)amino)-4-methoxyphenyl)acrylamide] here?
Its IC50 is under 1 nM.

What about the IC50 [2] of the same compound?
Its IC50 is under 1 nM.

What about the IC50 [3, 5] of the same compound?
Its IC50 is over 1000 nM.

And the IC50 [4, 7]?
Its IC50 is under 10 nM.

With `C=CC(=O)Nc1cc(Nc2nccc(-c3cc(F)c4nc(C)oc4c3)n2)c(OC)cc1N(C)CCN(C)C` [Example 32, N-(2-((2-(dimethylamino)ethyl)(methyl)amino)-5-((4-(4-fluoro-2-methylbenzo[d]oxazole-6-yl)pyrimidin-2-yl)amino)-4-methoxyphenyl)acrylamide] as the compound, how does the IC50 [1] read?
Its IC50 is 1 to 50 nM.

What about the IC50 [2] of the same compound?
Its IC50 is 1 to 50 nM.

And the IC50 [3, 5]?
The IC50 was over 1000 nM.

What about the IC50 [4, 7] of the same compound?
The IC50 was 10 to 100 nM.

Which results are given for `C=CC(=O)Nc1cc(Nc2nccc(-c3cc(F)c4ocnc4c3)n2)c(OC)cc1N(C)CCN(C)C` [Example 33, N-(2-((2-(dimethylamino)ethyl)(methyl)amino)-5-((4-(7-fluorobenzo[d]oxazole-5-yl)pyrimidin-2-yl)amino)-4-methoxyphenyl)acrylamide]?
IC50 [1]: 1 to 50 nM; IC50 [2]: < 1 nM; IC50 [3, 5]: > 1000 nM; IC50 [4, 7]: 10 to 100 nM

Which results are given for `C=CC(=O)Nc1cc(Nc2ncc(F)c(-c3cc(F)c4nc(C)c(C(C)C)n4c3)n2)c(OC)cc1N(C)CCN(C)C` [Example 34, N-(2-((2-(dimethylamino)ethyl)(methyl)amino)-5-((5-fluoro-4-(8-fluoro-3-isopropyl-2-methylimidazo[1,2-a]pyridine-6-yl)pyrimidin-2-yl)amino)-4-methoxyphenyl)acrylamide]?
IC50 [1]: 1 to 50 nM; IC50 [2]: < 1 nM; IC50 [3, 5]: > 1000 nM; IC50 [4, 7]: 10 to 100 nM

Which results are given for `C=CC(=O)Nc1cc(Nc2nccc(-c3ccc4nc(C)n(C(C)C)c4c3)n2)c(OC)cc1N(C)CCN(C)C` [Example 35, N-(2-((2-(dimethylamino)ethyl)(methyl)amino)-5-((4-(1-isopropyl-2-methyl-1H-benzo[d]imidazole-6-yl)pyrimidin-2-yl)amino)-4-methoxyphenyl)acrylamide]?
IC50 [1]: 1 to 50 nM; IC50 [2]: < 1 nM; IC50 [3, 5]: 400 to 1000 nM; IC50 [4, 7]: 10 to 100 nM

`C=CC(=O)Nc1cc(Nc2nccc(-c3cc(F)c4[nH]ncc4c3)n2)c(OC)cc1N(C)CCN(C)C` [Example 38, N-(2-((2-(dimethylamino)ethyl)(methyl)amino)-5-((4-(7-fluoro-1H-indazole-5-yl)pyrimidin-2-yl)amino)-4-methoxyphenyl)acrylamide] was tested. Which IC50 [1] did it give?
The IC50 was 1 to 50 nM.

What about the IC50 [2] of the same compound?
Its IC50 is under 1 nM.

What about the IC50 [3, 5] of the same compound?
Its IC50 is over 1000 nM.

What about the IC50 [4, 7] of the same compound?
The IC50 was 10 to 100 nM.

Which IC50 [1] does the source give for `C=CC(=O)Nc1cc(Nc2nccc(-c3cc(F)c4nn(C)cc4c3)n2)c(OC)cc1N(C)CCN(C)C` [Example 40, N-(2-((2-(dimethylamino)ethyl)(methyl)amino)-5-((4-(7-fluoro-2-methyl-2H-indazole-5-yl)pyrimidin-2-yl)amino)-4-methoxyphenyl)acrylamide] here?
The IC50 was 1 to 50 nM.

And the IC50 [2]?
The IC50 was under 1 nM.

What about the IC50 [3, 5] of the same compound?
Its IC50 is 400 to 1000 nM.

What about the IC50 [4, 7] of the same compound?
Its IC50 is 10 to 100 nM.

For `C=CC(=O)Nc1cc(Nc2nccc(-c3cc(F)c4nn(C)c(C(C)C)c4c3)n2)c(OC)cc1N(C)CCN(C)C` [Example 41, N-(2-((2-(dimethylamino)ethyl)(methyl)amino)-5-((4-(7-fluoro-3-isopropyl-2-methyl-2H-indazole-5-yl)pyrimidin-2-yl)amino)-4-methoxyphenyl)acrylamide], which IC50 [1] is on record?
Its IC50 is under 1 nM.

What about the IC50 [2] of the same compound?
Its IC50 is under 1 nM.

And the IC50 [3, 5]?
Its IC50 is 100 to 400 nM.

What about the IC50 [4, 7] of the same compound?
Its IC50 is under 10 nM.

What does the source list for `C=CC(=O)Nc1cc(Nc2nccc(-c3ccc4nn(C)c(C(C)C)c4c3)n2)c(OC)cc1N(C)CCN(C)C` [Example 42, N-(2-((2-(dimethylamino)ethyl)(methyl)amino)-5-((4-(3-isopropyl-2-methyl-2H-indazole-5-yl)pyrimidin-2-yl)amino)-4-methoxyphenyl)acrylamide]?
IC50 [1]: < 1 nM; IC50 [2]: < 1 nM; IC50 [3, 5]: 100 to 400 nM; IC50 [4, 7]: < 10 nM

Which IC50 [1] does the source give for `C=CC(=O)Nc1cc(Nc2nccc(-c3ccc4nccn4n3)n2)c(OC)cc1N(C)CCN(C)C` [Example 43, N-(2-((2-(dimethylamino)ethyl)(methyl)amino)-5-((4-(imidazo[1,2-b]pyridazine-6-yl)pyrimidin-2-yl)amino)-4-methoxyphenyl)acrylamide] here?
Its IC50 is 50 to 100 nM.

What about the IC50 [2] of the same compound?
The IC50 was 1 to 50 nM.

What about the IC50 [3, 5] of the same compound?
The IC50 was over 1000 nM.

And the IC50 [4, 7]?
Its IC50 is 100 to 400 nM.

How did the IC50 [1] turn out when `C=CC(=O)Nc1cc(Nc2nccc(-c3cc4c5c(c3)n(C(C)C)c(=O)n5CCC4)n2)c(OC)cc1N(C)CCN(C)C` [Example 44, N-(2-((2-(dimethylamino)ethyl)(methyl)amino)-5-((4-(1-isopropyl-2-oxo-1,2,5,6-tetrahydro-4H-imidazo[4,5,1-ij]quinolin-8-yl)pyrimidin-2-yl)amino)-4-methoxyphenyl)acrylamide] was run?
The IC50 was 1 to 50 nM.

And the IC50 [2]?
Its IC50 is under 1 nM.

And the IC50 [3, 5]?
Its IC50 is 400 to 1000 nM.

And the IC50 [4, 7]?
Its IC50 is under 10 nM.
